In publication PMC7464485, “Antimicrobial Activities of Highly Bioavailable Organic Salts and Ionic Liquids from Fluoroquinolones” (Pharmaceutics, 2020):
Converted amounts (≈) assume the structure as drawn. Where two headings read alike, the source gives them in different places.

Legend:
[1] = system: Bacillus subtilis (ATCC 6633); experiment: Antimicrobial activity (growth, OD 600 nm); assay type: cell-based
[2] = system: Klebsiella pneumoniae (ATCC 11296); experiment: Antimicrobial activity (growth, OD 600 nm); assay type: cell-based
[3] = system: Staphylococcus aureus (ATCC 25923); experiment: Antimicrobial activity (growth, OD 600 nm); assay type: cell-based
[4] = cited from earlier work
[5] = in water at 25 °C, cited from earlier work
[6] = Critical micelle concentration via ionic conductivity; assay type: physicochemical; settings: for CMC: in water at 25 °C
[7] = system: 3T3 mouse fibroblasts; experiment: Cytotoxicity on 3T3 cells (MTT); assay type: cell-based
[8] = Bacillus subtilis, ATCC6633, 0.001–10 µM, read-out: IC50 B. subtilis
[9] = Klebsiella pneumoniae, ATCC11296, 0.001–10 µM, read-out: IC50 K. pneumoniae
[10] = Staphylococcus aureus, ATCC25923, 0.001–10 µM, read-out: IC50 S. aureus
[11] = 0.001–10 µM, read-out: IC50 B. subtilis
[12] = relative decrease of inhibitory concentration vs ciprofloxacin
[13] = 0.001–10 µM, read-out: IC50 K. pneumoniae
[14] = 0.001–10 µM, read-out: IC50 S. aureus
[15] = relative decrease of inhibitory concentration vs norfloxacin

Question: For `O=C(O)c1cn(C2CC2)c2cc(N3CCNCC3)c(F)cc2c1=O` [Ciprofloxacin, ciprofloxacin, reference compound], which IC50 [1, 8] is on record?
Answer: 3.84 nM

Question: What about the IC50 [2, 9] of the same molecule?
Answer: 196 nM

Question: And the IC50 [3, 10]?
Answer: 29.2 nM

Question: Which Solubility in water ([4]; 25 °C, neutral form) does the source give for `CCn1cc(C(=O)O)c(=O)c2cc(F)c(N3CCNCC3)cc21` [Norfloxacin, norfloxacin, reference compound] here?
Answer: 370 µg/mL (≈ 1160 µM)

Question: What about the Solubility in water ([4]; 25 °C, value outside parentheses) of the same molecule?
Answer: 540 ± 20 µg/mL (≈ 1690 µM)

Question: What about the Solubility in water ([4]; 37 °C, value in parentheses) of the same molecule?
Answer: 850 ± 40 µg/mL (≈ 2660 µM)

Question: And the Solubility in water ([4]; 37 °C, value outside parentheses)?
Answer: 840 ± 20 µg/mL (≈ 2630 µM)

Question: And the IC50 ([1]; 0.001–10 µM, listed as Nor, read-out: IC50 B. subtilis)?
Answer: 117 nM

Question: What about the IC50 [1, 8] of the same molecule?
Answer: 97.7 nM

Question: What about the IC50 [2, 9] of the same molecule?
Answer: 255 nM

Question: And the IC50 [3, 10]?
Answer: 123 nM

Question: For `Cc1n(CCO)cc[n+]1C` [[C2OHDMIM]Cl, reference compound], which IC50 [1, 8] is on record?
Answer: > 10000 nM

Question: What about the IC50 [2, 9] of the same molecule?
Answer: > 10000 nM

Question: And the IC50 [3, 10]?
Answer: > 10000 nM

Question: With `Cc1n(CCO)cc[n+]1C.O=C([O-])c1cn(C2CC2)c2cc(N3CCNCC3)c(F)cc2c1=O` [[C2OHDMIM][Cip]] as the molecule, how does the IC50 [1, 11] read?
Answer: 12.3 nM

Question: What about the “RDIC50 B. subtilis” value [1, 12] of the same molecule?
Answer: 0.3

Question: And the IC50 [2, 13]?
Answer: 51 nM

Question: And the “RDIC50 K. pneumoniae” value [2, 12]?
Answer: 3.9

Question: And the IC50 [3, 14]?
Answer: 21.2 nM

Question: What about the “RDIC50 S. aureus” value [3, 12] of the same molecule?
Answer: 1.4

Question: With `CCn1cc(C(=O)[O-])c(=O)c2cc(F)c(N3CCNCC3)cc21.Cc1n(CCO)cc[n+]1C` [[C2OHDMIM][Nor]] as the molecule, how does the “lost activity against B. subtilis vs norfloxacin” value [1] read?
Answer: 20%

Question: And the IC50 [1, 11]?
Answer: 149 nM

Question: And the “RDIC50 B. subtilis” value [1, 15]?
Answer: 0.8

Question: What about the “increase in activity against K. pneumoniae vs norfloxacin” value [2] of the same molecule?
Answer: 40%

Question: What about the IC50 [2, 13] of the same molecule?
Answer: 178 nM

Question: What about the “RDIC50 K. pneumoniae” value [2, 15] of the same molecule?
Answer: 1.4

Question: What about the “increased activity against S. aureus vs norfloxacin” value [3] of the same molecule?
Answer: 60%

Question: What about the IC50 [3, 14] of the same molecule?
Answer: 79.5 nM

Question: What about the “RDIC50 S. aureus” value [3, 15] of the same molecule?
Answer: 1.6

Question: What does the source list for `C[n+]1ccn(CCO)c1.O=C([O-])c1cn(C2CC2)c2cc(N3CCNCC3)c(F)cc2c1=O` [[C2OHMIM][Cip]]?
Answer: IC50 [1, 11]: 15.8 nM; RDIC50 B. subtilis [1, 12]: 0.2; IC50 [2, 13]: 36.4 nM; RDIC50 K. pneumoniae [2, 12]: 5.4

Question: For `CCn1cc(C(=O)[O-])c(=O)c2cc(F)c(N3CCNCC3)cc21.C[n+]1ccn(CCO)c1` [[C2OHMIM][Nor]], which IC50 [1, 11] is on record?
Answer: 88.6 nM

Question: What about the “RDIC50 B. subtilis” value [1, 15] of the same molecule?
Answer: 1.3

Question: What about the IC50 [2, 13] of the same molecule?
Answer: 201 nM

Question: What about the “RDIC50 K. pneumoniae” value [2, 15] of the same molecule?
Answer: 1.3

Question: And the IC50 [3, 14]?
Answer: 91.7 nM

Question: And the “RDIC50 S. aureus” value [3, 15]?
Answer: 1.3

Question: With `C[n+]1ccn(CCO)c1` [[C2OHmim]Cl, reference compound] as the molecule, how does the IC50 [1, 8] read?
Answer: > 10000 nM

Question: And the IC50 [2, 9]?
Answer: > 10000 nM

Question: What about the IC50 [3, 10] of the same molecule?
Answer: > 10000 nM

Question: For `COCC[n+]1ccn(C)c1.O=C([O-])c1cn(C2CC2)c2cc(N3CCNCC3)c(F)cc2c1=O` [[C3OMIM][Cip]], which IC50 [1, 11] is on record?
Answer: 21.7 nM

Question: And the “RDIC50 B. subtilis” value [1, 12]?
Answer: 0.2

Question: And the IC50 [2, 13]?
Answer: 47.6 nM

Question: What about the “RDIC50 K. pneumoniae” value [2, 12] of the same molecule?
Answer: 4.1

Question: What about the IC50 [3, 14] of the same molecule?
Answer: 82 nM

Question: And the “RDIC50 S. aureus” value [3, 12]?
Answer: 0.4

Question: Which IC50 [1, 11] does the source give for `CCn1cc(C(=O)[O-])c(=O)c2cc(F)c(N3CCNCC3)cc21.COCC[n+]1ccn(C)c1` [[C3OMIM][Nor]] here?
Answer: 68.1 nM

Question: And the “RDIC50 B. subtilis” value [1, 15]?
Answer: 1.7

Question: What about the IC50 [2, 13] of the same molecule?
Answer: 224 nM

Question: And the “RDIC50 K. pneumoniae” value [2, 15]?
Answer: 1.1

Question: And the IC50 [3, 14]?
Answer: 107 nM

Question: And the “RDIC50 S. aureus” value [3, 15]?
Answer: 1.1

Question: Which results are given for `COCCn1cc[n+](C)c1` [[C3Omim]Cl, reference compound]?
Answer: IC50 [1, 8]: > 10000 nM; IC50 [2, 9]: > 10000 nM; IC50 [3, 10]: > 10000 nM

Question: Which CMC ([5]; ref 49) does the source give for `CCCCCCCCCCCCCCCC[n+]1ccccc1.[Cl-]` [[C16Py]Cl] here?
Answer: 1.067 mmol/L

Question: And the CMC ([5]; ref 50)?
Answer: 0.96 mmol/L

Question: What about the CMC [6] of the same molecule?
Answer: 1.063 mmol/L

Question: Which “decrease of activity against B. subtilis in comparison with ciprofloxacin” value [1] does the source give for `CCCCCCCCCCCCCCCC[n+]1ccccc1.O=C([O-])c1cn(C2CC2)c2cc(N3CCNCC3)c(F)cc2c1=O` [[C16Py][Cip]] here?
Answer: 40%

Question: And the IC50 [1, 11]?
Answer: 6.07 nM

Question: And the “RDIC50 B. subtilis” value [1, 12]?
Answer: 0.6

Question: What about the IC50 [2, 13] of the same molecule?
Answer: 9.88 nM

Question: What about the “RDIC50 K. pneumoniae” value [2, 12] of the same molecule?
Answer: 19.9

Question: What about the CMC [6] of the same molecule?
Answer: 0.0816 mmol/L

Question: What about the IC50 [7] of the same molecule?
Answer: 4720 nM

Question: What about the IC50 ([7]; 0.03–10 µM, 24 h) of the same molecule?
Answer: 4720 nM

Question: And the “activity against S. aureus” value [3]?
Answer: almost no activity

Question: And the IC50 [3, 14]?
Answer: 1430 nM

Question: What about the “RDIC50 S. aureus” value [3, 12] of the same molecule?
Answer: 0.0

Question: Which results are given for `CCCCCCCCCCCCCCCC[n+]1ccccc1.CCn1cc(C(=O)[O-])c(=O)c2cc(F)c(N3CCNCC3)cc21` [[C16Py][Nor]]?
Answer: IC50 [1, 11]: 87.3 nM; RDIC50 B. subtilis [1, 15]: 1.3; increase in activity against K. pneumoniae vs norfloxacin [2]: 30%; IC50 [2, 13]: 203 nM; RDIC50 K. pneumoniae [2, 15]: 1.3; decrease of CMC in comparison with [C16Py]Cl [6]: 95%; CMC [6]: 0.0539 mmol/L; IC50 [7]: 5170 nM; IC50 ([7]; 0.03–10 µM, 24 h): 5160 nM; IC50 [3, 14]: 10.8 nM; RDIC50 S. aureus [3, 15]: 11.4

Question: What does the source list for `C[N+](C)(C)CCO.[Cl-]` [[Ch]Cl, reference compound]?
Answer: IC50 ([1]; Bacillus subtilis, ATCC6633, read-out: IC50 B. subtilis): > 10000 nM; IC50 ([2]; Klebsiella pneumoniae, ATCC11296, read-out: IC50 K. pneumoniae, 0.001–10 µM): > 10000 nM; IC50 ([3]; Staphylococcus aureus, ATCC25923, read-out: IC50 S. aureus): > 10000 nM

Question: Which results are given for `C[N+](C)(C)CCO.O=C([O-])c1cn(C2CC2)c2cc(N3CCNCC3)c(F)cc2c1=O` [[Ch][Cip]]?
Answer: IC50 [1, 11]: 20.6 nM; RDIC50 B. subtilis [1, 12]: 0.2; IC50 [2, 13]: 51.1 nM; IC50 [3, 14]: 181 nM; RDIC50 S. aureus [3, 12]: 0.2

Question: With `CCn1cc(C(=O)[O-])c(=O)c2cc(F)c(N3CCNCC3)cc21.C[N+](C)(C)CCO` [[Ch][Nor]] as the molecule, how does the IC50 [1, 11] read?
Answer: 95.5 nM

Question: What about the “RDIC50 B. subtilis” value [1, 15] of the same molecule?
Answer: 1.2

Question: What about the IC50 [2, 13] of the same molecule?
Answer: 199 nM

Question: And the “RDIC50 K. pneumoniae” value [2, 15]?
Answer: 1.3

Question: What about the IC50 [3, 14] of the same molecule?
Answer: 127 nM

Question: What about the “RDIC50 S. aureus” value [3, 15] of the same molecule?
Answer: 1.0

Question: What does the source list for `CCn1cc[n+](C)c1` [[EMIM]Br, reference compound]?
Answer: IC50 [1, 8]: > 10000 nM; IC50 [2, 9]: > 10000 nM; IC50 [3, 10]: > 10000 nM

Question: With `CCn1cc[n+](C)c1.O=C([O-])c1cn(C2CC2)c2cc(N3CCNCC3)c(F)cc2c1=O` [[EMIM][Cip]] as the molecule, how does the IC50 [1, 11] read?
Answer: 16.2 nM

Question: And the “RDIC50 B. subtilis” value [1, 12]?
Answer: 0.2

Question: What about the IC50 [2, 13] of the same molecule?
Answer: 64.8 nM

Question: And the “RDIC50 K. pneumoniae” value [2, 12]?
Answer: 3.0

Question: And the IC50 [3, 14]?
Answer: 24.2 nM

Question: What about the “RDIC50 S. aureus” value [3, 12] of the same molecule?
Answer: 1.2

Question: With `CCn1cc(C(=O)[O-])c(=O)c2cc(F)c(N3CCNCC3)cc21.CCn1cc[n+](C)c1` [[EMIM][Nor]] as the molecule, how does the IC50 [1, 11] read?
Answer: 24.5 nM

Question: What about the “RDIC50 B. subtilis” value [1, 15] of the same molecule?
Answer: 4.8

Question: And the IC50 [2, 13]?
Answer: 208 nM

Question: What about the “RDIC50 K. pneumoniae” value [2, 15] of the same molecule?
Answer: 1.2

Question: What about the IC50 [3, 14] of the same molecule?
Answer: 211 nM

Question: What about the “RDIC50 S. aureus” value [3, 15] of the same molecule?
Answer: 0.6
